# Test results taken from patent US20220016113A1, “?2-ADRENOCEPTOR SUBTYPE C (ALPHA-2C) ANTAGONISTS FOR THE TREATMENT OF SLEEP APNEA” (Bayer Aktiengesellschaft, priority 2018, published 2022).
# Tested on: pig model of obstructive sleep apnea (OSA)
# Assay: pig model of obstructive sleep apnea (OSA): upper airway collapsibility under negative pressure
# Type: in vivo, German Landrace pigs
# Details: anaesthetized pigs
# Description: The therapeutic potential of the compounds of formula (I) according to the present invention in sleep apnea has been assessed preclinically in a pig model of obstructive sleep apnea (OSA).
# Using negative pressure, it is possible to induce collapse and thus obstruction of the upper respiratory tract in anaesthetized, spontaneously breathing pigs (Wirth K. J. et al., Sleep 36(5) (2013) pp. 699-708).
# German Landrace pigs are used for the model. The pigs are anaesthetized and tracheotomized. Two tracheal cannulas are inserted into the trachea, one into the rostral part and the other into the caudal part of the trachea. Using a connection piece, the rostral cannula is connected to a tube to the negative pressure device and to the distal tracheal cannula. The distal tracheal cannula is additionally connected to a tube with an open end to atmosphere via a connection piece that served for free tracheal breathing, circumventing the upper airway. By appropriate opening and clamping of those tubes breathing can be switched from nasal breathing to breathing through the caudal tracheal cannula, circumventing the upper airway, and the (isolated) upper airway can be connected to the negative pressure device, causing airflow in the inspiratory direction.
# At certain points in time, the collapsibility of the upper respiratory tract is tested by having the pig breathe via the caudal cannula and applying negative pressures of −50, −100 and −150 cm water head (cm H2O) to the upper respiratory tract. This causes the upper respiratory tract to collapse, which manifests itself in an interruption of the airflow and a pressure drop in the tube system. This test is conducted prior to the administration of the test substance and at certain intervals after the administration of the test substance. An appropriately effective test substance can prevent this collapse of the respiratory tract in the inspiratory phase.
compound,measurement,setting,value
"O=C(c1cnc(N2CC3(COC3)C2)nc1)N1CCC(N2CCc3ccccc3C2)CC1 [[4-(3,4-Dihydroisoquinolin-2(1H)-yl)piperidin-1-yl][2-(2-oxa-6-azaspiro[3.3]hept-6-yl)pyrimidin-5-yl]methanone]","inhibited upper airway collapsibility, duration","i.v. bolus 0.007 mg/kg followed by i.v. infusion 0.0025 mg/kg/h for four hours, negative pressure −50 cm water head",up to two hours
same,"inhibited upper airway collapsibility, duration","i.v. bolus 0.007 mg/kg followed by i.v. infusion 0.0025 mg/kg/h for four hours, negative pressure −100 cm water head",up to 90 minutes
same,"inhibited upper airway collapsibility, duration","i.v. bolus 0.07 mg/kg followed by i.v. infusion 0.025 mg/kg/h for four hours, negative pressure −50 cm water head",up to four hours
same,"inhibited upper airway collapsibility, duration","i.v. bolus 0.07 mg/kg followed by i.v. infusion 0.025 mg/kg/h for four hours, negative pressure −100 cm water head",up to four hours
same,"inhibited upper airway collapsibility, duration","i.v. bolus 0.07 mg/kg followed by i.v. infusion 0.025 mg/kg/h for four hours, negative pressure −150 cm water head",up to two hours
